From publication PMC7916057

Legend:
[1] = test system: AS1411-N6 (FRET-labeled) (DNA, G4) GGTTGGGGTGGTGGTGGTTGTGGTGGTGGTGGCCAACC; assay: FRET melting; settings: K+ 140 mM; 10 mM lithium cacodylate pH 7.2; ligand 4 eq., DNA 0.2 µM
[2] = test system: AS1411 (FRET-labeled) (DNA, G4) GGTGGTGGTGGTTGTGGTGGTGGTGG; assay: FRET melting; settings: K+ 140 mM; 10 mM lithium cacodylate pH 7.2; ligand 4 eq., DNA 0.2 µM
[3] = test system: AS1411-N6 (biotin-labeled) (DNA, G4) GGTTGGGGTGGTGGTGGTTGTGGTGGTGGTGGCCAACC; assay: SPR; settings: K+ 140 mM; 10 mM phosphate, 25 °C; 1:1 affinity model
[4] = test system: AS1411 (biotin-labeled) (DNA, G4) GGTGGTGGTGGTTGTGGTGGTGGTGG; assay: SPR; settings: K+ 140 mM; 10 mM phosphate, 25 °C; 1:1 affinity model
[5] = test system: AS1411 (DNA, G4) GGTGGTGGTGGTTGTGGTGGTGGTGG; assay: CD spectra; settings: K+ 140 mM; 10 mM lithium cacodylate; ellipticity increase
[6] = test system: AS1411-N6 (DNA, G4) GGTTGGGGTGGTGGTGGTTGTGGTGGTGGTGGCCAACC; assay: 1H NMR titration (imino region); settings: 10 mM potassium phosphate pH 6.9, 10% D2O, 25 °C; duplex signals lost at 3 eq.
[7] = test system: AS1411-N6 (DNA, G4) GGTTGGGGTGGTGGTGGTTGTGGTGGTGGTGGCCAACC; assay: CD melting (260 nm); settings: K+ 140 mM; 10 mM lithium cacodylate pH 7.2; ligand 4 eq., DNA 10 µM
[8] = test system: AS1411 (DNA, G4) GGTGGTGGTGGTTGTGGTGGTGGTGG; assay: CD melting (260 nm); settings: K+ 140 mM; 10 mM lithium cacodylate pH 7.2; ligand equivalents not given
[9] = test system: AS1411-N6 (DNA, G4) GGTTGGGGTGGTGGTGGTTGTGGTGGTGGTGGCCAACC; assay: CD spectra; settings: K+ 140 mM, 10 mM lithium cacodylate
[10] = molecular target: T1, nucleolin RBD1,2 (NCL RBD 1,2) (UniProt P19338 307-466); assay: fluorescence titration; TMPyP4; PAGE: 10 mM phosphate, 140 mM KCl, 20 uM DNA, 1:1(:1) ratio, 30 min; fluorescence titration buffer, pH and temperature not given in the material; settings: protein: recombinant; unlabelled in PAGE; stem-loop duplex plus G4; monomer major, dimer band also seen
[11] = molecular target: T1, nucleolin RBD1,2 (NCL RBD 1,2); assay: fluorescence titration; 360A; PAGE: 10 mM phosphate, 140 mM KCl, 20 uM DNA, 1:1(:1) ratio, 30 min; fluorescence titration buffer, pH and temperature not given in the material; settings: protein: recombinant; unlabelled in PAGE; stem-loop duplex plus G4; monomer major, dimer band also seen
[12] = molecular target: T1, nucleolin RBD1,2 (NCL RBD 1,2); assay: fluorescence titration; PhenDC3; PAGE: 10 mM phosphate, 140 mM KCl, 20 uM DNA, 1:1(:1) ratio, 30 min; fluorescence titration buffer, pH and temperature not given in the material; settings: protein: recombinant; unlabelled in PAGE; stem-loop duplex plus G4; monomer major, dimer band also seen
[13] = molecular target: T1, nucleolin RBD1,2 (NCL RBD 1,2); assay: fluorescence titration; no ligand; PAGE: 10 mM phosphate, 140 mM KCl, 20 uM DNA, 1:1(:1) ratio, 30 min; fluorescence titration buffer, pH and temperature not given in the material; settings: protein: recombinant; unlabelled in PAGE; stem-loop duplex plus G4; monomer major, dimer band also seen

T1 sequence (P19338 307-466): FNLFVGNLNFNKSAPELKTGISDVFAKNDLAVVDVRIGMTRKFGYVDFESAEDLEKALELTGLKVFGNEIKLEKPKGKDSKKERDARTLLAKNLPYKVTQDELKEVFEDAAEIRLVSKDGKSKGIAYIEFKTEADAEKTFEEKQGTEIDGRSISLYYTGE

Row | Molecule | ΔTm [1] | ΔTm [2] | KD [3] | KD [4] | binding [5] | further results
1 | NCCOc1cc(C(=O)Nc2cc(OCCN)c3ccccc3n2)nc(C(=O)Nc2cc(OCCN)c3ccccc3n2)c1 | 2.35 ± 0.44 °C | -0.75 ± 1.02 °C |  |  |  | 
2 | C[n+]1cc(NC(=O)c2cccc(C(=O)Nc3cc4ccccc4[n+](C)c3)n2)cc2ccccc21 | 20.16 ± 0.41 °C | 19.28 ± 0.99 °C | 38.2 ± 5.4 nM | 43.4 ± 8.47 nM | yes | binding [6]: yes; ΔTm [7]: > 30 °C
3 | CN(C)c1ccc(Nc2c3ccc(NC(=O)CCN4CCCC4)cc3nc3cc(NC(=O)CCN4CCCC4)ccc23)cc1 | 3.73 ± 0.09 °C | 8.99 ± 0.79 °C |  |  |  | 
4 | GGTTGGGGTGGTGGTGGTTGTGGTGGTGGTGGCCAACC (structured_DNA) [AS1411-N6] |  |  |  |  |  | Kd [10]: 1100 ± 200 nM; Kd [11]: 700 ± 100 nM; Kd [12]: 1500 ± 300 nM; Kd [13]: 1000 ± 100 nM

Now from value to molecule, other results behind:

Row | ΔTm [1] | ΔTm [2] | KD [3] | KD [4] | binding [5] | Molecule | further results
5 | 28.94 ± 0.23 °C | 21.75 ± 1.08 °C | 264 ± 30 nM | 115 ± 7.09 nM |  | C[n+]1ccc(-c2c3nc(c(-c4cc[n+](C)cc4)c4ccc([nH]4)c(-c4cc[n+](C)cc4)c4nc(c(-c5cc[n+](C)cc5)c5ccc2[nH]5)C=C4)C=C3)cc1 | ΔTm [8]: ~ 25 °C; binding ([9]; ellipticity increase): yes
6 | 22.89 ± 1.49 °C | 24.77 ± 2.56 °C | 227 ± 54 nM | 344 ± 53.8 nM | yes | C[n+]1cc(NC(=O)c2ccc3ccc4ccc(C(=O)Nc5cc6ccccc6[n+](C)c5)nc4c3n2)cc2ccccc21 | binding ([9]; 280 nm band lost at 3–4 eq.): yes
